Measured values as given in PubChem BioAssay (NCI).
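Values below derive from 48-hour exposures of cells grown in 96-well plates, with endpoints linearly interpolated between the two concentrations bracketing the appropriate inhibition level. TGI: concentration producing complete growth inhibition.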

Assays:
Test in all cases: NCI tumour cell line growth inhibition, 48 h
COLO 205 colon = system: COLO 205 colon
OVCAR-4 ovarian = system: OVCAR-4 ovarian
MCF7 breast = system: MCF7 breast
SR leukemia = system: SR leukemia
K-562 leukemia = system: K-562 leukemia
NCI-H522 lung = system: NCI-H522 lung
SF-268 CNS = system: SF-268 CNS
A549 NSCLC = system: A549 NSCLC
MOLT-4 leukemia = system: MOLT-4 leukemia
IGROV1 ovarian = system: IGROV1 ovarian

SMILES | TGI (COLO 205 colon) [µM] | TGI (OVCAR-4 ovarian) [µM] | TGI (MCF7 breast) [µM] | TGI (SR leukemia) [µM] | TGI (K-562 leukemia) [µM] | TGI (NCI-H522 lung) [µM] | TGI (SF-268 CNS) [µM] | TGI (A549 NSCLC) [µM] | TGI (MOLT-4 leukemia) [µM] | TGI (IGROV1 ovarian) [µM]
O=C1CSC2(CC(/C=C/c3cccs3)=NN2c2cccc(S(=O)(=O)O)c2)N1c1nc2ccccc2s1 (stereo not given) | > 100 | > 100 | > 100 | > 100 | > 100 | > 100 | > 100 | > 100 | > 100 | > 100
Cc1ccc2c(c1)c1ccc3c(c1n2C)C(=O)C=CC3=O | 3.16 | > 5.56 | 4.99 | 0.871 | 2.31 | 2.68 | > 10 | > 10 | 2.19 | > 10
CC(C)N1CCN(c2ccc(OCC3COC(Cn4cncn4)(c4ccc(Cl)cc4Cl)O3)cc2)CC1 (stereo not given) | 3.69 | 35.6 | 28.9 | 12.1 | 19.8 | 30.4 | 28.8 | > 52 | 28.8 | 33.6
O=C(CNc1ccc(Cl)cc1Cl)Nn1c(-c2ccccc2)nc2ccccc2c1=O | 36.1 | 32.2 | 27.4 | > 100 | 36.5 | 25.7 | 21.6 | > 100 | 43.3 | 42.2
Nc1ncc2c(n1)-c1ccccc1OC2N1CCCC1 (stereo not given) | > 100 | > 100 | > 100 | > 100 | > 100 | > 100 | > 100 | > 100 | > 100 | > 100
C=CCn1c(=O)ccn(/C(=C/C(=O)OCC)C(=O)OCC)c1=O | 3.97 | > 51.4 | 17.1 | 23.2 | 12.5 | 7.57 | 42.1 | 32.3 | 10.3 | 29.7
CCOC(=O)C(NC(=O)CC)(N1CCN(c2cc3c(cc2F)c(=O)c(C(=O)O)cn3C2CC2)CC1)C(F)(F)F (stereo not given) | > 100 | > 100 | > 100 | > 100 | > 100 | > 100 | > 100 | > 100 | > 100 | > 100
COc1ccc(C(=O)NCCN(C)C)c2nc3ccccc3cc12 | 2.57 | 6.49 | 3.99 | 1.5 | 12.5 | 2.6 | 9.82 | 2.4 | 22.6 | 6.18
COc1cccc2c1OC(c1cccc3ccccc13)C([N+](=O)[O-])=C2 (stereo not given) | 5.72 | 13 | 2.65 | > 100 | 4.19 | 3.21 | 13.3 | 3.75 | 5.71 | 7.5
O=c1c2c(no[n+]2[O-])c2ccccc2n1-c1ccccc1 | 20.3 | > 46.4 | 15.6 | > 27.3 | > 46.4 | 3.27 | 20.1 | 35.1 | 26.6 | 10
Cc1nc2ccccc2c(-n2cccn2)c1CCn1cccn1 | > 100 | > 100 | > 100 | > 100 | > 100 | > 100 | > 100 | > 100 | > 100 | > 100
O=C1N(Cc2ccccc2)C2CSCC2N1Cc1ccccc1 (stereo not given) | 32.8 | > 100 | > 100 | 93.6 | > 100 | 24.2 | > 100 | > 100 | 97 | > 100
O=C1C(=Nc2ccc(Nc3ccccc3)cc2)Oc2ccccc21 | 3.01 | 6.8 | 5.74 | 4.71 | 11.4 | 4.3 | 9.73 | 10.7 | 6.39 | 5.96
COc1ccc(/C=N/NC(=O)c2ccc(O)c(CN(C)C)c2)cc1 | > 100 | > 100 | > 100 | > 100 | > 100 | 90.3 | > 100 | > 100 | > 100 | > 100
CC12c3c4ccc(C=O)c3Oc3ccc(C=O)c(c31)Oc1ccc(C=O)c(c12)O4 | > 25 | > 25 | > 25 | > 25 | > 25 | > 25 | > 25 | > 25 | > 25 | > 25
O=C(OCC(Cl)(Cl)Cl)N1CC[C@H](C2CCCCC2)C1 | 39 | 31.2 | 34.9 | 40.6 | 53 | 32.5 | 36.3 | 36.1 | 50.5 | 32.7
